What all share (assay type): cell-based
One assay has as its system MOLT-4 cells (T-ALL). Put plainly: In vitro IC90, MOLT-4 cells. The settings on record: Homo sapiens. As to the method: (§1) Fig. 7 Mean Plasma concentration of DT2216 in 4 patients infused with DT2216 at 0.4 mg/kg over time against in vitro inhibitory concentration 90%(IC90) for various cell lines. SCLC – small cell lung cancer; OC- ovarian carcinoma; T-ALL – T cell acute lymphoblastic leukemia, CTCL – Cutaneous T cell lymphoma TEXT PRINTED IN THE PICTURE: DT2216: IC90 (≈ 1000 nM) for H146 cells (SCLC); IC90 (< 1000 nM) for OVCAR4 cells (OC); IC90 (≈ 500 nM) for MOLT-4 cells (T-ALL); IC90 (< 100 nM) for OVCAR4 cells (OC)* (*In combination with Carboplatin); IC90 (≈ 100 nM) for H146 cells (SCLC)** (**In combination with SN-38/irinotecan); IC90 (30 nM) for Myla cells (CTCL)

In another assay the test system is OVCAR4 cells (OC). Put plainly: In vitro IC90, OVCAR4 cells. The settings on record: Homo sapiens, OVCAR-4, DT2216 alone. As to the method:
as §1

A further assay concerns Myla cells (CTCL). Put plainly: In vitro IC90, Myla cells. As to the method:
as §1

The next assay concerns the target T1, BCL-XL (Homo sapiens, UniProt Q07817).
T1 construct: endogenous in cells; host or cells: peripheral leukocytes (WBC) of trial patients
The assay is described as follows: BCL-XL levels in WBCs from a normal human donor after incubation with DT2216. Conditions: increasing concentrations, approximately 16 hours incubation, beta actin control. As to the method:
Fig. 5 Levels of BCL-XL in WBCs from a normal human donor. They were determined after incubation with increasing concentrations of DT2216 as depicted in the figure for approximately 16 hours. […] BCL-XL expression after incubation with DT2216 in comparison to beta actin which acts as control in the figure

“Also recorded” adds a separate entry of the source.

T1 sequence (Q07817 whole entry): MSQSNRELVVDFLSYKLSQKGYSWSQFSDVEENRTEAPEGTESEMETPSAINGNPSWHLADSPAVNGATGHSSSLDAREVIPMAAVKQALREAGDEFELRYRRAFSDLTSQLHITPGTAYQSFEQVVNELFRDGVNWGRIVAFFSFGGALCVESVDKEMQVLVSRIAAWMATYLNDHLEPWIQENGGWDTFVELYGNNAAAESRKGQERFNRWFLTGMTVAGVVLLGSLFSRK

One may read the IC90 as the concentration at which the effect reaches the 90% level. As for `Cc1ncsc1-c1ccc([C@H](C)NC(=O)[C@@H]2C[C@@H](O)CN2C(=O)[C@@H](NC(=O)CCCCCC(=O)N2CCN(CC[C@H](CSc3ccccc3)Nc3ccc(S(=O)(=O)NC(=O)c4ccc(N5CCN(CC6=C(c7ccc(Cl)cc7)CCC(C)(C)C6)CC5)cc4)cc3S(=O)(=O)C(F)(F)F)CC2)C(C)(C)C)cc1` [DT2216], the IC90 is around 500 nM in the assay on MOLT-4 cells (T-ALL), below 1000 nM with OVCAR4 cells (OC) and 30 nM in the assay with Myla cells (CTCL). For the same compound, the “BCL-XL levels in normal human donor WBCs” value on BCL-XL is reported as “capable of completely degrading BCL-XL; also recorded: dose dependent degradation”.

The record behind these values is publication PMC12613848, “First in human phase 1 study of DT2216, a selective BCL-xL degrader, in patients with relapsed/refractory solid malignancies” (Journal of Hematology & Oncology, 2025).
